Key:
[1] = target: RNA-directed RNA polymerase (Hepacivirus hominis, UniProt O39930); assay: Inhibitory concentration against RNA dependent RNA polymerase Nonstructural protein 5B (HCV NS5B polymerase) in Hepatitis C virus
[2] = target: RNA-directed RNA polymerase (Hepacivirus hominis) (UniProt O39930); assay: Effective dose for RNA dependent RNA polymerase Nonstructural protein 5B (HCV NS5B polymerase) in Hepatitis C virus
[3] = target: RNA-directed RNA polymerase (Hepacivirus hominis) (UniProt O39930); assay: Cytotoxic concentration against RNA dependent RNA polymerase Nonstructural protein 5B (HCV NS5B polymerase) in Hepatitis C virus
[4] = target: RNA-directed RNA polymerase (Hepacivirus hominis) (UniProt O39930); assay: Ratio for cellular to RNA dependent RNA polymerase Nonstructural protein 5B activity in Hepatitis C virus
[5] = Clearance measured in Sprague Dawley rat dosed at 5mg/kg; assay type: ADME, organism-based; details: in vivo
Rattus norvegicus [6] = assay: Half life was determined upon oral administration to rat; assay type: functional, organism-based
[7] = Maximum concentration upon oral administration to rat at 5 mg/kg; assay type: ADME, organism-based; set-up: dose 5 mg/kg, route oral; details: in vivo
Rattus norvegicus [8] = assay: Oral bioavailability in rat; assay type: functional, organism-based

RNA-directed RNA polymerase (Hepacivirus hominis), sequence (O39930 1-591): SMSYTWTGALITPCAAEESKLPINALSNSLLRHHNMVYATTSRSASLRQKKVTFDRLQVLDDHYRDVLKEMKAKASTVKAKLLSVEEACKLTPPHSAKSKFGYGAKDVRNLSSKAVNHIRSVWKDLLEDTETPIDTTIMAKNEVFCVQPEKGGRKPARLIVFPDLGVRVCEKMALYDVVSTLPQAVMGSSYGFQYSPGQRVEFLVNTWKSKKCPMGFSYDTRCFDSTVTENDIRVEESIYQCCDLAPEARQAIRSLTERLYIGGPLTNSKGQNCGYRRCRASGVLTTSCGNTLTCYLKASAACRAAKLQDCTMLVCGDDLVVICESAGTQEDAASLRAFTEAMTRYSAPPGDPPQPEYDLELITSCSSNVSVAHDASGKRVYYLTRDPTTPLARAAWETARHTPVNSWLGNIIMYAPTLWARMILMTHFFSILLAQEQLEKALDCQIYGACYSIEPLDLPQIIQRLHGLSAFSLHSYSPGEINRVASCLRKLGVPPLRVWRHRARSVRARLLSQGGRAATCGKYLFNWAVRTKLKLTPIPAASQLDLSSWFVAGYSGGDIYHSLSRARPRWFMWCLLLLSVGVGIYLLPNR
RNA-directed RNA polymerase, sequence (O39930 whole entry): as the sequence (O39930 1-591) above

Row | Compound | IC50 [1] | ED50 [2] | CC50 [3] | Ratio [4] | clearance [5] | T1/2 (Rattus norvegicus [6]) | Cmax [7] | bioavailability (Rattus norvegicus [8])
1 | CCc1ccccc1C(=O)N/C(=C\c1ccc(Oc2ccccc2Br)cc1)C(=O)O | 0.05 µM | 70 µM | > 100 µM | – | – | – | – | –
2 | O=C(O)CNC(=O)/C(=C/c1ccc(Oc2ccccc2Br)cc1)NC(=O)c1ccccc1 | 0.06 µM | > 50 µM | > 50 µM | – | – | – | – | –
3 | Nc1ccc(Oc2ccc(/C=C(\NC(=O)CCC3CCCC3)C(=O)O)cc2)c(C(F)(F)F)c1 | 14 µM | 5 µM | > 50 µM | 0.4 | – | – | – | –
4 | O=C(NCc1ccccc1)/C(=C/c1ccc(Oc2ccccc2Br)cc1)NC(=O)c1ccccc1 | > 100 µM | > 50 µM | > 50 µM | – | – | – | – | –
5 | O=C(Nc1ccccc1)/C(=C/c1ccc(Oc2ccccc2Br)cc1)NC(=O)c1ccccc1 | > 100 µM | > 50 µM | > 50 µM | – | – | – | – | –
6 | O=C(CCc1ccc(Cl)cc1)N/C(=C\c1ccc(Oc2ccccc2Br)cc1)C(=O)O | 0.5 µM | > 100 µM | > 100 µM | – | – | – | – | –
7 | O=C(O)/C(=C/c1ccc(Oc2ccccc2Br)cc1)NC(=O)c1ccc(Br)cc1 | 0.12 µM | > 100 µM | > 100 µM | – | – | – | – | –
8 | O=C(O)/C(=C/c1ccc(Oc2c(F)cccc2Br)cc1)NC(=O)c1ccccc1 | – | 60 µM | – | – | – | – | – | –
9 | NC(=O)/C(=C/c1ccc(Oc2ccccc2Br)cc1)NC(=O)c1ccccc1 | 0.5 µM | 20 µM | 45 µM | – | – | – | – | –
10 | O=C(CO)N/C(=C\c1ccc(Oc2ccccc2I)cc1)C(=O)O | 2 µM | > 100 µM | – | – | – | – | – | –
11 | O=C(Cc1ccc(C(F)(F)F)cc1)N/C(=C\c1ccc(Oc2ccccc2Br)cc1)C(=O)O | 1 µM | > 100 µM | 18 µM | – | – | – | – | –
12 | O=C(CCC1CCCC1)N/C(=C\c1ccc(Oc2ccccc2C(F)(F)F)cc1)C(=O)O | 6.3 µM | 5 µM | > 100 µM | 0.7 | – | – | – | –
13 | O=C(Nc1ccccc1O)/C(=C/c1ccc(Oc2ccccc2Br)cc1)NC(=O)c1ccccc1 | 15 µM | > 50 µM | > 50 µM | – | – | – | – | –
14 | O=C(CCC1CCCC1)N/C(=C\c1ccc(Oc2ccc(F)cc2Br)cc1)C(=O)O | 15 µM | 12 µM | > 100 µM | 0.8 | – | – | – | –
15 | O=C(Nc1ccccc1C(=O)O)/C(=C/c1ccc(Oc2ccccc2Br)cc1)NC(=O)c1ccccc1 | 0.4 µM | > 50 µM | > 50 µM | – | – | – | – | –
16 | O=C(CC1CCCCC1)N/C(=C\c1ccc(Oc2ccccc2Br)cc1)C(=O)O | 2.2 µM | > 100 µM | – | – | – | – | – | –
17 | O=C(Nc1cccc(O)c1)/C(=C/c1ccc(Oc2ccccc2Br)cc1)NC(=O)c1ccccc1 | 1.9 µM | 15 µM | 25 µM | – | – | – | – | –
18 | O=C(Cc1ccc(F)cc1)N/C(=C\c1ccc(Oc2ccccc2Br)cc1)C(=O)O | 2.2 µM | > 100 µM | > 100 µM | – | – | – | – | –
19 | CONC(=O)/C(=C/c1ccc(Oc2ccccc2Br)cc1)NC(=O)c1ccccc1 | 0.8 µM | > 50 µM | 22 µM | – | – | – | – | –
20 | CC(O)C(=O)N/C(=C\c1ccc(Oc2ccccc2I)cc1)C(=O)O (stereo unspecified) | 4.8 µM | > 100 µM | – | – | – | – | – | –
21 | O=C(O)/C(=C/c1ccc(Oc2ccccc2Br)cc1)NC(=O)c1ccc(F)c(F)c1 | 0.23 µM | > 100 µM | > 100 µM | – | – | – | – | –
22 | O=C(O)/C(=C/c1ccc(Oc2ccccc2Br)cc1)NC(=O)c1ccc(Cl)cc1 | 0.11 µM | > 100 µM | > 100 µM | – | – | – | – | –
23 | O=C(O)/C(=C/c1ccc(Oc2ccccc2I)cc1)NC(=O)C1CC1 | 2.8 µM | > 100 µM | – | – | – | – | – | –
24 | O=C(O)CCCC(=O)N/C(=C\c1ccc(Oc2ccccc2I)cc1)C(=O)O | 0.83 µM | > 100 µM | – | – | – | – | – | –
25 | O=C(O)/C(=C/c1ccc(Oc2ccccc2Br)cc1)NC(=O)c1ccccc1F | 0.18 µM | > 100 µM | > 100 µM | – | – | – | – | –

Row | Compound | IC50 [1] | ED50 [2] | CC50 [3] | Ratio [4] | clearance [5] | T1/2 (Rattus norvegicus [6]) | Cmax [7] | bioavailability (Rattus norvegicus [8])
26 | O=C(Cc1ccc(Br)cc1)N/C(=C\c1ccc(Oc2ccccc2Br)cc1)C(=O)O | 0.82 µM | > 100 µM | > 100 µM | – | – | – | – | –
27 | O=C(O)/C(=C/c1ccc(Oc2ccccc2Br)cc1)NC(=O)C12CC3CC(CC(C3)C1)C2 | – | > 100 µM | – | – | – | – | – | –
28 | O=C(O)/C(=C/c1ccc(Oc2ccccc2Br)cc1)NC(=O)c1ccccc1O | 0.08 µM | > 100 µM | > 100 µM | – | – | – | – | –
29 | O=C(CCC1CCCC1)N/C(=C\c1ccc(Oc2ccccc2I)cc1)C(=O)O | 7 µM | 15 µM | – | 2 | – | – | – | –
30 | O=C(O)CCC(=O)N/C(=C\c1ccc(Oc2ccccc2I)cc1)C(=O)O | 0.79 µM | > 100 µM | – | – | – | – | – | –
31 | CCc1ccccc1Oc1ccc(/C=C(\NC(=O)CCC2CCCC2)C(=O)O)cc1 | 7.1 µM | 15 µM | > 100 µM | 2 | – | – | – | –
32 | O=C(O)/C(=C/c1ccc(Oc2ccccc2Br)cc1)NC(=O)c1cccc(F)c1 | 0.09 µM | 53 µM | > 100 µM | – | – | – | – | –
33 | O=C(CCC1CCCCC1)N/C(=C\c1ccc(Oc2ccccc2Br)cc1)C(=O)O | 13 µM | > 100 µM | – | – | – | – | – | –
34 | O=C(O)/C(=C/c1ccc(Oc2ccccc2I)cc1)NC(=O)C(O)c1ccccc1 (stereo unspecified) | 3.1 µM | > 100 µM | – | – | – | – | – | –
35 | O=C(O)/C(=C/c1ccc(Oc2ccccc2Br)cc1)NC(=O)c1ccccc1 | – | 28 µM | > 100 µM | 280 | 0.2 L/h/kg | 1.5 h | 9 µM | 21%
36 | O=C(O)/C(=C/c1ccc(Oc2ccccc2Br)cc1)NC(=O)C1CC2CCC1C2 (stereo unspecified) | 0.1 µM | > 100 µM | – | – | – | – | – | –
37 | Cc1ccc(CCC(=O)N/C(=C\c2ccc(Oc3ccccc3Br)cc2)C(=O)O)cc1 | 2.6 µM | > 100 µM | > 100 µM | – | – | – | – | –
38 | O=C(Cc1ccc(Cl)cc1)N/C(=C\c1ccc(Oc2ccccc2Br)cc1)C(=O)O | 0.94 µM | > 100 µM | > 100 µM | – | – | – | – | –
39 | O=C(CCc1ccc(C(F)(F)F)cc1)N/C(=C\c1ccc(Oc2ccccc2Br)cc1)C(=O)O | 0.37 µM | > 100 µM | > 100 µM | – | – | – | – | –
40 | O=C(O)/C(=C/c1ccc(Oc2ccccc2Br)cc1)NC(=O)C1CCCCC1 | 0.2 µM | > 100 µM | – | – | – | – | – | –
41 | O=C(Nc1ccc(O)cc1)/C(=C/c1ccc(Oc2ccccc2Br)cc1)NC(=O)c1ccccc1 | 12 µM | > 50 µM | 22 µM | – | – | – | – | –
42 | O=C(NCCO)/C(=C/c1ccc(Oc2ccccc2Br)cc1)NC(=O)c1ccccc1 | 2.7 µM | 8 µM | > 50 µM | 3 | 3.2 L/h/kg | 1 h | 1.5 µM | 76%
43 | NNC(=O)/C(=C/c1ccc(Oc2ccccc2Br)cc1)NC(=O)c1ccccc1 | 1 µM | > 50 µM | > 50 µM | – | – | – | – | –
44 | O=C(Cc1ccc(I)cc1)N/C(=C\c1ccc(Oc2ccccc2Br)cc1)C(=O)O | 1 µM | > 100 µM | > 100 µM | – | – | – | – | –
45 | O=C(O)/C(=C/c1ccc(Oc2ccccc2Br)cc1)NC(=O)c1ccc(F)cc1F | 0.23 µM | > 100 µM | > 100 µM | – | – | – | – | –
46 | O=C(CC1CCCC1)N/C(=C\c1ccc(Oc2ccccc2Br)cc1)C(=O)O | 0.85 µM | > 100 µM | – | – | – | – | – | –
47 | Cc1ccc(C(=O)N/C(=C\c2ccc(Oc3ccccc3Br)cc2)C(=O)O)cc1 | 0.25 µM | > 100 µM | > 100 µM | – | – | – | – | –
48 | O=C(CCC1CCCC1)N/C(=C\c1ccc(Oc2ccccc2Br)cc1)C(=O)O | 6 µM | 12 µM | > 100 µM | 2 | – | – | – | –
49 | O=C(CCc1ccc(F)cc1)N/C(=C\c1ccc(Oc2ccccc2Br)cc1)C(=O)O | 0.6 µM | > 100 µM | > 100 µM | – | – | – | – | –

Reference: ChEMBL document CHEMBL1145278, “Inhibitors of HCV NS5B polymerase. Part 2: Evaluation of the northern region of (2Z)-2-benzoylamino-3-(4-phenoxy-phenyl)-acrylic acid” (Bioorg Med Chem Lett, 2005)
